Source: PubChem BioAssay AID220 (DTP/NCI, 2004)
“And” between values parts separate entries of the source, which are not always exact repeats. Identical values can stand only once. Results filed as inconclusive are left out.

Test system: CD8F1 mice, subcutaneous mammary adenocarcinoma, T/C%
Test: NCI In Vivo Anticancer Drug Screen. Data for tumor model Mammary Adenocarcinoma CD8F1 (subcutaneous) in CD8F1
Conditions: higher = larger tumour
In short: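 Transplantable tumors were established in mice, animals were dosed with compound or vehicle, and survival or tumor size was then measured in both groups. The treated result was divided by the control result.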

[1] = endpoint: median tumor weight (est.), dose: 6.25 mg/kg/injection, schedule: Q07DX005 (ip), vehicle: distilled water + Tween-80
[2] = endpoint: median tumor weight (est.), dose: 12.5 mg/kg/injection, schedule: Q07DX005 (ip), vehicle: distilled water + Tween-80
[3] = endpoint: median tumor weight change, dose: 62.5 mg/kg/injection, schedule: Q01DX001 (ip), vehicle: saline with Tween-80
[4] = endpoint: median tumor weight change, dose: 125.0 mg/kg/injection, schedule: Q01DX001 (ip), vehicle: saline with Tween-80
[5] = endpoint: median tumor weight (est.), dose: 25.0 mg/kg/injection, schedule: Q07DX005 (ip), vehicle: suspension in saline
[6] = endpoint: median tumor weight (est.), dose: 50.0 mg/kg/injection, schedule: Q07DX005 (ip), vehicle: suspension in saline
[7] = endpoint: median tumor weight (est.), dose: 100.0 mg/kg/injection, schedule: Q07DX005 (ip), vehicle: suspension in saline
[8] = endpoint: median tumor weight (est.), dose: 12.5 mg/kg/injection, schedule: Q07DX005 (ip), vehicle: saline with Tween-80
[9] = endpoint: median tumor weight (est.), dose: 25.0 mg/kg/injection, schedule: Q07DX005 (ip), vehicle: saline with Tween-80
[10] = endpoint: median tumor weight (est.), dose: 50.0 mg/kg/injection, schedule: Q07DX005 (ip), vehicle: saline with Tween-80
[11] = endpoint: median tumor weight (est.), dose: 100.0 mg/kg/injection, schedule: Q07DX005 (ip), vehicle: saline with Tween-80
[12] = endpoint: median tumor weight (est.), dose: 200.0 mg/kg/injection, schedule: Q07DX005 (ip), vehicle: saline with Tween-80
[13] = endpoint: median tumor weight change, dose: 250.0 mg/kg/injection, schedule: Q01DX001 (ip), vehicle: saline with Tween-80
[14] = endpoint: median tumor weight change, dose: 500.0 mg/kg/injection, schedule: Q01DX001 (ip), vehicle: saline with Tween-80
[15] = endpoint: median tumor weight change, dose: 1000.0 mg/kg/injection, schedule: Q01DX001 (ip), vehicle: saline with Tween-80

COc1cccc2c1C(=O)c1c(O)c3c(c(O)c1C2=O)C[C@@](O)(C(=O)CO)C[C@@H]3OC1CC(OC(C)=O)C(OC(C)=O)C(C)O1 (some centres undefined)
T/C (endpoint: median tumor weight (est.), dose: 3.12 mg/kg/injection, schedule: Q07DX005 (ip), vehicle: distilled water + Tween-80): 65 % of control
T/C [1]: 58 % of control
T/C [2]: 6 % of control
T/C (endpoint: median tumor weight (est.), dose: 25.0 mg/kg/injection, schedule: Q07DX005 (ip), vehicle: distilled water + Tween-80): 13 % of control

CN(C)CCN1C(=O)c2cccc3cc(N)cc(c23)C1=O
T/C (endpoint: median tumor weight change, dose: 10.0 mg/kg/injection, schedule: Q01DX001 (ip), vehicle: saline with Tween-80): 81 % of control and 92 % of control
T/C (endpoint: median tumor weight change, dose: 40.0 mg/kg/injection, schedule: Q01DX001 (ip), vehicle: saline with Tween-80): 42 % of control and 44 % of control and 61 % of control

O=C(C/C(=N\C(=S)Nc1cc(C(F)(F)F)ccc1Cl)NO)N1CCCC1
T/C [3]: 76 % of control
T/C [4]: 83 % of control and 90 % of control

COC1C(/C=C/C(C)=O)OC2OC(C)(C)OC21 (centres undefined)
T/C (endpoint: median tumor weight (est.), dose: 12.5 mg/kg/injection, schedule: Q07DX005 (ip), vehicle: Klucel (hydroxypropylcellulose) (HPC)): 165 % of control
T/C (endpoint: median tumor weight (est.), dose: 12.5 mg/kg/injection, schedule: Q07DX005 (ip), vehicle: saline): 76 % of control
T/C (endpoint: median tumor weight (est.), dose: 25.0 mg/kg/injection, schedule: Q07DX005 (ip), vehicle: Klucel (hydroxypropylcellulose) (HPC)): 99 % of control
T/C (endpoint: median tumor weight (est.), dose: 25.0 mg/kg/injection, schedule: Q07DX005 (ip), vehicle: saline): 83 % of control
T/C (endpoint: median tumor weight (est.), dose: 50.0 mg/kg/injection, schedule: Q07DX005 (ip), vehicle: Klucel (hydroxypropylcellulose) (HPC)): 91 % of control
T/C (endpoint: median tumor weight (est.), dose: 50.0 mg/kg/injection, schedule: Q07DX005 (ip), vehicle: saline): 38 % of control
T/C (endpoint: median tumor weight (est.), dose: 100.0 mg/kg/injection, schedule: Q07DX005 (ip), vehicle: Klucel (hydroxypropylcellulose) (HPC)): 96 % of control
T/C (endpoint: median tumor weight (est.), dose: 100.0 mg/kg/injection, schedule: Q07DX005 (ip), vehicle: saline): 101 % of control
T/C (endpoint: median tumor weight (est.), dose: 200.0 mg/kg/injection, schedule: Q07DX005 (ip), vehicle: Klucel (hydroxypropylcellulose) (HPC)): 71 % of control
T/C (endpoint: median tumor weight (est.), dose: 200.0 mg/kg/injection, schedule: Q07DX005 (ip), vehicle: saline): 101 % of control
T/C (endpoint: median tumor weight (est.), dose: 400.0 mg/kg/injection, schedule: Q07DX005 (ip), vehicle: saline): 84 % of control

Nc1nc2nc[nH]c2c(=O)[nH]1
T/C [5]: 73 % of control
T/C [6]: 73 % of control
T/C [7]: 69 % of control
T/C (endpoint: median tumor weight (est.), dose: 200.0 mg/kg/injection, schedule: Q07DX005 (ip), vehicle: suspension in saline): 73 % of control

COC1OC(CO)C(O)C(NC(=O)N(C)N=O)C1O (centres undefined)
T/C (endpoint: median tumor weight change, dose: 125.0 mg/kg/injection, schedule: Q01DX001 (ip), vehicle: saline): 86 % of control

CCCCCCCCCCCCCCCCCCCCCC(=O)Nc1ccn(C2OC(CO)C(O)C2O)c(=O)n1 (centres undefined)
T/C [8]: 104 % of control
T/C [9]: 68 % of control
T/C [10]: 75 % of control
T/C [11]: 69 % of control
T/C [12]: 49 % of control
T/C (endpoint: median tumor weight (est.), dose: 400.0 mg/kg/injection, schedule: Q07DX005 (ip), vehicle: saline with Tween-80): 53 % of control

O=CN(SSN(C=O)C1CCCCC1)C1CCCCC1
T/C [9]: 101 % of control
T/C [10]: 123 % of control
T/C [12]: 100 % of control

O=C1N(CC2CO2)CCN1CC1CO1 (centres undefined)
T/C (endpoint: median tumor weight change, dose: 125.0 mg/kg/injection, schedule: Q01DX001 (ip), vehicle: suspension in saline): 30 % of control

CNc1nc2c(N)ncnc2n1C1OC(CO)C(O)C1O (centres undefined)
T/C [5]: 89 % of control and 91 % of control
T/C [6]: 76 % of control and 96 % of control
T/C [7]: 29 % of control

COc1cc(C(=O)N/N=C/c2cccc([N+](=O)[O-])c2)cc(OC)c1OC
T/C [4]: 94 % of control
T/C [13]: 60 % of control
T/C [14]: 108 % of control
T/C [15]: 115 % of control
T/C (endpoint: median tumor weight change, dose: 2000.0 mg/kg/injection, schedule: Q01DX001 (ip), vehicle: saline with Tween-80): 119 % of control

O=[N+]([O-])c1ccc(N2CCOCC2)c2c1no[n+]2[O-]
T/C [3]: 100 % of control
T/C [4]: 114 % of control
T/C [13]: 43 % of control
T/C [14]: 56 % of control

O=C(O)C1CC1.[Ag]
T/C [1]: 63 % of control
T/C [2]: 88 % of control

C/C=C\C(C)=C/C(C)C(=O)CC(O)CC1CC(=O)NC(=O)C1 (centres undefined)
T/C (endpoint: median tumor weight change, dose: 50.0 mg/kg/injection, schedule: Q01DX001 (ip), vehicle: saline with Tween-80): 66 % of control
T/C (endpoint: median tumor weight change, dose: 56.0 mg/kg/injection, schedule: Q01DX001 (ip), vehicle: DMSO): 58 % of control
T/C (endpoint: median tumor weight change, dose: 100.0 mg/kg/injection, schedule: Q01DX001 (ip), vehicle: saline with Tween-80): 66 % of control
T/C (endpoint: median tumor weight change, dose: 112.0 mg/kg/injection, schedule: Q01DX001 (ip), vehicle: DMSO): 60 % of control
T/C (endpoint: median tumor weight change, dose: 200.0 mg/kg/injection, schedule: Q01DX001 (ip), vehicle: saline with Tween-80): 73 % of control
T/C (endpoint: median tumor weight change, dose: 225.0 mg/kg/injection, schedule: Q01DX001 (ip), vehicle: DMSO): 77 % of control
T/C (endpoint: median tumor weight change, dose: 400.0 mg/kg/injection, schedule: Q01DX001 (ip), vehicle: saline with Tween-80): 98 % of control

O=NN(CCF)C(=O)NC1CCCCC1
T/C (endpoint: median tumor weight change, dose: 4.0 mg/kg/injection, schedule: Q01DX001 (ip), vehicle: Klucel (hydroxypropylcellulose) (HPC)): 87 % of control
T/C (endpoint: median tumor weight change, dose: 16.0 mg/kg/injection, schedule: Q01DX001 (ip), vehicle: Klucel (hydroxypropylcellulose) (HPC)): 44 % of control
T/C (endpoint: median tumor weight change, dose: 31.0 mg/kg/injection, schedule: Q01DX001 (ip), vehicle: Klucel (hydroxypropylcellulose) (HPC)): 45 % of control
T/C (endpoint: median tumor weight change, dose: 62.5 mg/kg/injection, schedule: Q01DX001 (ip), vehicle: Klucel (hydroxypropylcellulose) (HPC)): 30 % of control

CCCCCCCCCCS(=O)CC(CO)NC(=O)/C=C/c1c(C)[nH]c(=O)[nH]c1=O (centres undefined)
T/C (endpoint: median tumor weight (est.), dose: 0.75 mg/kg/injection, schedule: Q07DX005 (ip), vehicle: saline with Tween-80): 85 % of control
T/C (endpoint: median tumor weight (est.), dose: 1.5 mg/kg/injection, schedule: Q07DX005 (ip), vehicle: saline with Tween-80): 100 % of control and 106 % of control
T/C (endpoint: median tumor weight (est.), dose: 3.0 mg/kg/injection, schedule: Q07DX005 (ip), vehicle: saline with Tween-80): 124 % of control and 113 % of control
T/C (endpoint: median tumor weight (est.), dose: 6.0 mg/kg/injection, schedule: Q07DX005 (ip), vehicle: saline with Tween-80): 76 % of control
T/C (endpoint: median tumor weight (est.), dose: 12.0 mg/kg/injection, schedule: Q07DX005 (ip), vehicle: saline with Tween-80): 23 % of control
T/C (endpoint: median tumor weight (est.), dose: 48.0 mg/kg/injection, schedule: Q07DX005 (ip), vehicle: saline with Tween-80): 76 % of control

CC(=O)Nc1ccc(C(=O)C=O)cc1
T/C [8]: 114 % of control
T/C [9]: 117 % of control
T/C [10]: 84 % of control
T/C [11]: 93 % of control
T/C [12]: 80 % of control

CCN(CC)CCN1C(=O)C2C3C=CC(C2C1=O)C1C2C(=O)N(CCN(CC)CC)C(=O)C2C31 (centres undefined)
T/C (endpoint: median tumor weight change, dose: 15.62 mg/kg/injection, schedule: Q01DX001 (ip), vehicle: water): 106 % of control
T/C (endpoint: median tumor weight change, dose: 31.25 mg/kg/injection, schedule: Q01DX001 (ip), vehicle: water): 111 % of control
T/C (endpoint: median tumor weight change, dose: 62.5 mg/kg/injection, schedule: Q01DX001 (ip), vehicle: water): 88 % of control
T/C (endpoint: median tumor weight change, dose: 125.0 mg/kg/injection, schedule: Q01DX001 (ip), vehicle: water): 92 % of control

O=C1c2ccccc2C(=O)c2c3c(cc(NCCNCCO)c21)N(CCO)CCN3
T/C [4]: 97 % of control
T/C [13]: 91 % of control
T/C [14]: 77 % of control

CC1=C(C)C(=O)O[C@@H]([C@](C)(O)[C@]2(O)CC[C@@]3(O)[C@@H]4C[C@H]5O[C@]56CC=CC(=O)[C@]6(C)[C@H]4CC[C@]23C)C1
T/C (endpoint: median tumor weight change, dose: 25.0 mg/kg/injection, schedule: Q01DX001 (ip), vehicle: saline): 91 % of control
T/C (endpoint: median tumor weight change, dose: 50.0 mg/kg/injection, schedule: Q01DX001 (ip), vehicle: saline): 98 % of control
T/C (endpoint: median tumor weight change, dose: 200.0 mg/kg/injection, schedule: Q01DX001 (ip), vehicle: saline): 69 % of control
T/C (endpoint: median tumor weight change, dose: 400.0 mg/kg/injection, schedule: Q01DX001 (ip), vehicle: saline): 82 % of control

Cn1c(=O)[nH]c2nncnc2c1=O
T/C (endpoint: median tumor weight change, dose: 15.62 mg/kg/injection, schedule: Q01DX001 (ip), vehicle: other): 89 % of control
T/C (endpoint: median tumor weight change, dose: 31.25 mg/kg/injection, schedule: Q01DX001 (ip), vehicle: other): 88 % of control
T/C (endpoint: median tumor weight change, dose: 62.5 mg/kg/injection, schedule: Q01DX001 (ip), vehicle: other): 57 % of control

COc1ccc2c(ccc3oc([N+](=O)[O-])cc32)c1
T/C [3]: 77 % of control
T/C [4]: 63 % of control
T/C [13]: 76 % of control
T/C [14]: 86 % of control
T/C [15]: 56 % of control
